Measurements reported in publication PMC8909834, “An Orally Bioavailable and Highly Efficacious Inhibitor of CDK9/FLT3 for the Treatment of Acute Myeloid Leukemia” (Cancers, 2022).

Experiments:
MV4-11 tumor xenografts = assay: In vivo xenograft study; conditions: for MST (median survival time): vehicle MST = 38 days; for mice with unmeasurable tumor size (zero tumor volume): day 29, n = 7
Description: In vivo xenograft study. The in vivo efficacy of CDDD11-8 on tumors developed in mice from AML cells was evaluated by engrafting 5 × 10^6 MV4-11 cells suspended in a 1:1 mixture of Matrigel^TM (Becton Dickinson, Corning, NY, USA) and serum-free medium (100 µL) subcutaneously into the right flank of female BALB/c nude (nu/nu) mice (6–7 weeks). When the tumor reached a volume of 100–200 mm^3, mice were randomized into 3 groups (n = 7). Mice in G1 received vehicle (acetate buffer at pH 4.74), while mice in G2 and G3 received CDDD11-8, at 75 and 125 mg/kg, respectively. Both CDDD11-8 and vehicle were administered orally, once a day for 28 days. Clinical signs of toxicity were observed daily; body weights were measured daily during the dosing period and every other day thereafter. Tumor dimensions, i.e., length (L) and width (W), were measured every other day using Vernier calipers. The tumor volume was calculated using the formula 0.52 × L × W^2, where L and W are perpendicularly measured diameters and L ≥ W. Mice were humanely killed by CO2 asphyxiation when the tumor volume reached 1500 mm^3 or the percent loss of body weight exceeded 15%, or the study was completed.
Data were analyzed statistically using GraphPad Prism version 7. Descriptive statistics (frequency, mean, percentage) were used to report tumor volume, body weights, daily change in body weights from day 1 of dosing, and the ratio of tumor volume between treatment and control groups (T/C). Statistical differences in tumor volume between treated and control groups were analyzed using two-way ANOVA, where days on which the tumor volume was measured and treatments were the two independent factors, with a two-tailed significance cut-off level of p < 0.05. Tumor growth inhibition (TGI) was calculated as %TGI = [((VCD − VCB) − (VTD − VTB))/(VCD − VCB)] × 100, where VCD and VTD were the tumor volumes of the vehicle and treated groups on the calculated day, respectively, and VCB and VTB were the tumor volumes of the vehicle and treated groups at baseline (day 1). Kaplan–Meier survival analysis was performed, and group comparisons were done with the Gehan–Breslow–Wilcoxon test with Bonferroni correction method.

[1] = tested on: other members of the CDK family; assay: ADP Glo kinase assay, CDK selectivity; type: biochemical, human; conditions: ratio of potency
Description: Kinase assay. The ADP Glo^TM kinase assay (Promega, Madison, WI, USA) was used to assess the inhibition by CDDD11-8 of CDKs 1, 2, 4, 6, 7, and 9, as well as the mutant isoforms of FLT3. The assays were performed in accord with the manufacturer’s protocol (Promega) as described previously. Briefly, serial three-fold dilutions of CDDD11-8 were prepared in 100% DMSO from a 2 mM stock solution, followed by 1:40 dilution into Milli-Q water. […] Luminescence was read using an EnVision® multilabel plate reader (PerkinElmer, Beaconsfield, UK), and half-maximum inhibitory concentrations (IC50) were calculated using a non-linear regression model with a variable slope, plotting log (inhibitor concentration) vs. response using the following formula: Ar%=Bottom+Top−Bottom/1+Inhibitor Concentration/IC50^HillSlope where the relative activity Ar (%) is the signal relative to the controls, IC50 is the half maximum concentration, Hillslope is the steepness of the dose-response curve, Top and Bottom are plateaus reflecting the maximum and minimum in responses on the Y-axis (GraphPad Prism version 7, San Diego, CA, USA). Ki values were calculated from the IC50 using the Cheng−Prusoff equation [32]. […]

With Cc1cnc(N[C@H]2CC[C@H](N)CC2)nc1-c1cnc2ccc(-c3ccccc3)cn12 [CDDD11-8] the “day from which inhibition of tumor growth was statistically significant vs vehicle” value (MV4-11 tumor xenografts; 75 mg/kg PO QD) was 9 days, the “increase in the life span” value (MV4-11 tumor xenografts; 75 mg/kg PO QD 28 days) was 29% and the “MST (median survival time)” value (MV4-11 tumor xenografts; 75 mg/kg PO QD 28 days) was 49 days. The T/C% (MV4-11 tumor xenografts; 75 mg/kg PO QD, day 1) was 101%, the “% TGI” value (MV4-11 tumor xenografts; 75 mg/kg PO QD, day 3) was 92% and the T/C% (MV4-11 tumor xenografts; 75 mg/kg PO QD, day 3) was 75%. For the same compound, the “% TGI” value (MV4-11 tumor xenografts; 75 mg/kg PO QD, day 5) was 101%, the T/C% (MV4-11 tumor xenografts; 75 mg/kg PO QD, day 5) was 60% and the “% TGI” value (MV4-11 tumor xenografts; 75 mg/kg PO QD, day 7) was 95%. The T/C% (MV4-11 tumor xenografts; 75 mg/kg PO QD, day 7) was 50%, the “% TGI” value (MV4-11 tumor xenografts; 75 mg/kg PO QD, day 9) was 115% and the T/C% (MV4-11 tumor xenografts; 75 mg/kg PO QD, day 9) was 32%. For the same compound, the “% TGI” value (MV4-11 tumor xenografts; 75 mg/kg PO QD, day 11) was 121%, the T/C% (MV4-11 tumor xenografts; 75 mg/kg PO QD, day 11) was 22% and the “% TGI” value (MV4-11 tumor xenografts; 75 mg/kg PO QD, day 13) was 127%. The T/C% (MV4-11 tumor xenografts; 75 mg/kg PO QD, day 13) was 12%, the “% TGI” value (MV4-11 tumor xenografts; 75 mg/kg PO QD, day 15) was 129% and the T/C% (MV4-11 tumor xenografts; 75 mg/kg PO QD, day 15) was 8%. The “% TGI” value (MV4-11 tumor xenografts; 75 mg/kg PO QD, day 17) was 128%, the T/C% (MV4-11 tumor xenografts; 75 mg/kg PO QD, day 17) was 6% and the “% TGI” value (MV4-11 tumor xenografts; 75 mg/kg PO QD, day 19) was 125%. For the same compound, the T/C% (MV4-11 tumor xenografts; 75 mg/kg PO QD, day 19) was 5%, the “% TGI” value (MV4-11 tumor xenografts; 75 mg/kg PO QD, day 21) was 119% and the T/C% (MV4-11 tumor xenografts; 75 mg/kg PO QD, day 21) was 5%. The “% TGI” value (MV4-11 tumor xenografts; 75 mg/kg PO QD, day 23) was 112%, the T/C% (MV4-11 tumor xenografts; 75 mg/kg PO QD, day 23) was 5% and the “% TGI” value (MV4-11 tumor xenografts; 75 mg/kg PO QD, day 25) was 105%. The T/C% (MV4-11 tumor xenografts; 75 mg/kg PO QD, day 25) was 9%, the “% TGI” value (MV4-11 tumor xenografts; 75 mg/kg PO QD, day 27) was 96% and the T/C% (MV4-11 tumor xenografts; 75 mg/kg PO QD, day 27) was 15%. The “% TGI” value (MV4-11 tumor xenografts; 75 mg/kg PO QD, day 29) was 92%, the “mice with unmeasurable tumor size (zero tumor volume)” value (MV4-11 tumor xenografts; 75 mg/kg PO QD) was “one” and the “animals with tumor regression” value (MV4-11 tumor xenografts; 75 mg/kg PO QD, starting on day 9, n = 7) was “two out of seven animals”. The “day from which inhibition of tumor growth was statistically significant vs vehicle” value (MV4-11 tumor xenografts; 125 mg/kg PO QD) was 7 days, the “increase in the life span” value (MV4-11 tumor xenografts; 125 mg/kg PO QD 28 days) was 45% and the “MST (median survival time)” value (MV4-11 tumor xenografts; 125 mg/kg PO QD 28 days) was 55 days. For the same compound, the T/C% (MV4-11 tumor xenografts; 125 mg/kg PO QD, day 1) was 102%, the “% TGI” value (MV4-11 tumor xenografts; 125 mg/kg PO QD, day 3) was 127% and the T/C% (MV4-11 tumor xenografts; 125 mg/kg PO QD, day 3) was 66%. The “% TGI” value (MV4-11 tumor xenografts; 125 mg/kg PO QD, day 5) was 133%, the T/C% (MV4-11 tumor xenografts; 125 mg/kg PO QD, day 5) was 47% and the “% TGI” value (MV4-11 tumor xenografts; 125 mg/kg PO QD, day 7) was 122%. For the same compound, the T/C% (MV4-11 tumor xenografts; 125 mg/kg PO QD, day 7) was 36%, the “% TGI” value (MV4-11 tumor xenografts; 125 mg/kg PO QD, day 9) was 142% and the T/C% (MV4-11 tumor xenografts; 125 mg/kg PO QD, day 9) was 16%. For the same compound, the “% TGI” value (MV4-11 tumor xenografts; 125 mg/kg PO QD, day 11) was 137%, the T/C% (MV4-11 tumor xenografts; 125 mg/kg PO QD, day 11) was 12% and the “% TGI” value (MV4-11 tumor xenografts; 125 mg/kg PO QD, day 13) was 139%. The T/C% (MV4-11 tumor xenografts; 125 mg/kg PO QD, day 13) was 4%, the “% TGI” value (MV4-11 tumor xenografts; 125 mg/kg PO QD, day 15) was 136% and the T/C% (MV4-11 tumor xenografts; 125 mg/kg PO QD, day 15) was 3%. For the same compound, the “% TGI” value (MV4-11 tumor xenografts; 125 mg/kg PO QD, day 17) was 133%, the T/C% (MV4-11 tumor xenografts; 125 mg/kg PO QD, day 17) was 2% and the “% TGI” value (MV4-11 tumor xenografts; 125 mg/kg PO QD, day 19) was 130%. The T/C% (MV4-11 tumor xenografts; 125 mg/kg PO QD, day 19) was 2%, the “% TGI” value (MV4-11 tumor xenografts; 125 mg/kg PO QD, day 21) was 123% and the T/C% (MV4-11 tumor xenografts; 125 mg/kg PO QD, day 21) was 2%. The “% TGI” value (MV4-11 tumor xenografts; 125 mg/kg PO QD, day 23) was 117%, the T/C% (MV4-11 tumor xenografts; 125 mg/kg PO QD, day 23) was 1% and the “% TGI” value (MV4-11 tumor xenografts; 125 mg/kg PO QD, day 25) was 114%. The T/C% (MV4-11 tumor xenografts; 125 mg/kg PO QD, day 25) was 1%, the “% TGI” value (MV4-11 tumor xenografts; 125 mg/kg PO QD, day 27) was 112% and the T/C% (MV4-11 tumor xenografts; 125 mg/kg PO QD, day 27) was 1%. The “% TGI” value (MV4-11 tumor xenografts; 125 mg/kg PO QD, day 29) was 109%, the “animals with tumor regression still maintained” value (MV4-11 tumor xenografts; 125 mg/kg PO QD, day 29) was “six out of seven mice” and the “mice with unmeasurable tumor size (zero tumor volume)” value (MV4-11 tumor xenografts; 125 mg/kg PO QD) was “three”. The “animals with tumor regression” value (MV4-11 tumor xenografts; 125 mg/kg PO QD, from day 7, n = 7) was “all the mice”, the tolerability (MV4-11 tumor xenografts; 75 and 125 mg/kg PO QD 28 days, tumor-bearing mice) was “well tolerated” and the “selectivity for CDK9 over other members of the CDK family” value [1] was over 50 fold.
